{
  "source": "patent US10968214B2",
  "about": "“KRas G12C inhibitors” (Eli Lilly and Company, priority 2018, dated 2021)",
  "key": {"H1373": {"test_system": "H1373", "experiment": "CellTiterGlo Cell Proliferation Assay, H1373", "format": "cell-based", "conditions": "Homo sapiens, NCI-H1373, KRas G12C, Lung, 96 hr", "description": "(§1) A panel of tumor cell lines harboring KRas G12C or other KRas mutations are collected (Table 6). All cell lines are from ATCC or other sources indicated.\n(§2) Typically cells are cultured in RPMI1640 or Dulbecco's modified Eagle's medium (DMEM, GIBCO) supplemented with 10% FBS (GIBCO, Invitrogen). For 2D culture cells (4×10^3/well) maintained in growth medium described above, are plated onto 96 well tissue culture plates Corning® Cat. 3603) a day before the treatment. For 3D culture 8000 cells/well are seeded onto 96 well ultra-low attachment tissue culture plates (Corning, #3474). The cells are treated compound for 96 hr, and then are analyzed for viability using the CellTiterGlo® Luminescent Cell Viability Assay® (Promega #G7572 for 2D and Promega #G9683 for 3D cultures) according to manufacturer's instructions and an EnVision™ plate reader. Nonlinear regression and sigmoidal dose-response curves are used to calculate the half maximal inhibitory concentration (IC50) with GraphPad Prism 4® software."}, "[1]": {"test_system": "pERK in H358 xenograft tumors", "experiment": "In vivo target inhibition/PD, H358 xenograft, pERK", "set-up": "species or system mouse", "conditions": "for inhibition at 10 mg/kg: 10 mg/kg single dose; for inhibition at 30 mg/kg: 30 mg/kg single dose", "description": "To evaluate in vivo target inhibition and anti-tumor efficacy of a compound, Human lung cancer cells, H358 or H2122 are implanted into nude mice xenograft tumor models. Either H358 or H2122 cells (10×10^6 in a 1:1 Matrigel® mix, 0.2 mL total volume) are implanted by subcutaneous injection in hind leg of nude female mice (Harlan Laboratories). A total of 5 mice each group are used for efficacy study, and a total of 3-4 mice each group are used for target engagement and PD study. Treatment is initiated with oral administration (gavage) of a test compound or vehicle (20% Captisol®, 25 mM phosphate, pH 2.0 in 0.2 mL volume when the tumor size reaches approximately […]. Tumor growth and body weight are monitored over time to evaluate efficacy and signs of toxicity. Bidimensional measurements of tumors are performed twice a week and tumor volumes are calculated based on mid-axis length and mid-axis width. Tumor volume data are transformed to a log scale to equalize variance across time and treatment groups. The log volume data are analyzed with a two-way repeated measures analysis of variance by time and treatment using the mixed procedures in SAS software (version 8.2). The correlation model for the repeated measures is spatial power. Treated groups are compared to the control group at each time point. The mixed procedure is also used separately for each treatment group to calculate adjusted means and standard errors at each time point. Both analyses account for the autocorrelation within each animal. The adjusted means and standard errors are plotted for each treatment group versus time.\nFor in vivo target inhibition and PD analysis, tumors are ground by mortar and pestle on dry ice and tumor fragments are added to 800 μL of lysis buffer containing 1% Triton X100, 25 mM Tris pH 7.5, 150 mM NaCl, 1 mM EDTA, and 1 mM EGTA with Halt protease and phosphatase inhibitor cocktail (Thermo Scientific, cat. no. 1861281) in lysing matrix D tubes (MP Biomedical®, cat. no. 6913-500) with one additional large bead (MP Biomedical® ¼″ ceramic sphere bead cat. no. 6540-412) per tube. Tumor fragments are homogenized in a Thermo Bio101® fast prep (FP120) at setting 4 for […] while cold for a total of 2 times. Lysates are spun at 14,000 rpm for 10 min at 4° C. to clarify. Protein estimation is done on the lysate supernatant using a BioRad Dc® protein assay and lysates are diluted in complete lysis/binding buffer from the Ras GTPase Chemi ELISA Kit® (Active Motif, cat. no. 52097). The active KRas ELISA was performed as follows: Glutathione-coated ELISA wells were incubated with diluted RAF1-GST in complete lysis/binding buffer for 1 hr at 4° C. with gentle agitation. Wells are washed 3 times with wash buffer and 100 μg of lysates are added to each well and incubated at RT for 1 hr with mild agitation. The wells are washed an additional 3 times, then primary antibody, diluted in antibody binding buffer, is added to each well. The plates are incubated for 1 hr. The wells are washed 3 more times before adding HRP-conjugated secondary antibody, diluted in antibody binding buffer, to each well. The plates are incubated at RT for 1 hr. ELISA wells are washed 4 times, chemiluminescent reagents is added and then luminescence is read. For pERK Meso Scale Discovery ELISA, 25 μg of protein containing 0.1% SDS is used; for pMEK Meso Scale Discovery ELISA, 50 μg of protein without SDS is used. Meso Scale Discovery Whole Cell Lysate Kits for pERK and pMEK are provided by Meso Scale Discovery.\nThe tumor samples are collected 4 hr post a single dose. The tumor lysates are prepared and the inhibition of pERK, pMEK, and active KRas is measured as described above.\nAfter a single dose, the tumor samples are harvested at 2, 4, 8, 12 and 24 hr post doing. The tumor lysates are prepared and the inhibition of pERK, pMEK, and active KRas is measured as described above."}, "H1975": {"test_system": "H1975", "experiment": "CellTiterGlo Cell Proliferation Assay, H1975", "format": "cell-based", "conditions": "Homo sapiens, NCI-H1975, KRas wild type, lung, 96 hr", "description": "as §1, §2"}, "UM-UC-3": {"test_system": "UM-UC-3", "experiment": "CellTiterGlo Cell Proliferation Assay, UM-UC-3", "format": "cell-based", "conditions": "Homo sapiens, UMUC3, KRas G12C, Bladder, 96 hr", "description": "as §1, §2"}, "SW1463": {"test_system": "SW1463", "experiment": "CellTiterGlo Cell Proliferation Assay, SW1463", "format": "cell-based", "conditions": "Homo sapiens, KRas G12C, colon, 96 hr, read-out: IC50 (μM) in 2 D cell proliferation", "description": "as §1, §2"}, "A549": {"test_system": "A549", "experiment": "CellTiterGlo Cell Proliferation Assay, A549", "format": "cell-based", "conditions": "KRas G12S, lung, 96 hr; for IC50: Homo sapiens", "description": "as §1, §2"}, "Kyse-410": {"test_system": "Kyse-410", "experiment": "CellTiterGlo Cell Proliferation Assay, Kyse-410", "format": "cell-based", "conditions": "Homo sapiens, KRas G12C, Esophagus, 96 hr", "description": "as §1, §2"}, "[2]": {"conditions": "read-out: IC50 (μM) in 2 D cell proliferation"}, "[3]": {"conditions": "read-out: IC50 (μM) in 3 D spheroid cell proliferation"}, "[4]": {"conditions": "Mus musculus, NCI-H358, 2 h, H358 xenograft, time course, 2 hr, read-out: % Inhibition pERK"}, "[5]": {"conditions": "Mus musculus, NCI-H358, 4 h, H358 xenograft, time course, 4 hr, read-out: % Inhibition pERK"}, "[6]": {"conditions": "Mus musculus, NCI-H358, 4 h, H358 xenograft, 4 hr post dose, read-out: % Inhibition pERK"}, "[7]": {"conditions": "Mus musculus, NCI-H358, 8 h, H358 xenograft, time course, 8 hr, read-out: % Inhibition pERK"}, "[8]": {"conditions": "Mus musculus, NCI-H358, 12 h, H358 xenograft, time course, 12 hr, read-out: % Inhibition pERK"}, "[9]": {"conditions": "Mus musculus, NCI-H358, 24 h, H358 xenograft, time course, 24 hr, read-out: % Inhibition pERK"}},
  "note": "Read-outs that look alike come from different tables or passages of the source.",
  "data": [
    {"molecule": "C=CC(=O)N1CCN(c2ncnc3c(F)c(-c4ccc(F)c5sc(N)nc45)c(Cl)cc23)CC1", "note": "[Example 1, 1-{4-[7-(2-Amino-7-fluoro-1,3-benzothiazol-4-yl)-6-chloro-8-fluoroquinazolin-4-yl]piperazin-1-yl}prop-2-en-1-one]", "values": [
      {"measurement": "IC50", "setting": "H1373; [2]", "result": 0.209, "unit": "µM"},
      {"measurement": "IC50", "setting": "H1373; [3]", "result": 0.02, "unit": "µM"},
      {"measurement": "dose to achieve 50% target inhibition (TED50), pERK", "setting": "[1]; H358 xenograft, single dose, 4 hr", "result": 9.78, "unit": "mg/kg"},
      {"measurement": "inhibition at 10 mg/kg", "setting": "[1]; [4]", "result": 61.7, "unit": "%"},
      {"measurement": "inhibition at 30 mg/kg", "setting": "[1]; [4]", "result": 83.1, "unit": "%"},
      {"measurement": "inhibition at 10 mg/kg", "setting": "[1]; [5]", "result": 73.5, "unit": "%"},
      {"measurement": "inhibition at 30 mg/kg", "setting": "[1]; [5]", "result": 87.3, "unit": "%"},
      {"measurement": "inhibition at 1 mg/kg", "setting": "[1]; Mus musculus, NCI-H358, 4 h, H358 xenograft, 1 mg/kg single dose, 4 hr post dose", "result": 5.5, "unit": "%"},
      {"measurement": "inhibition at 3 mg/kg", "setting": "[1]; Mus musculus, NCI-H358, 4 h, H358 xenograft, 3 mg/kg single dose, 4 hr post dose", "result": 16.4, "unit": "%"},
      {"measurement": "inhibition at 10 mg/kg", "setting": "[1]; [6]", "result": 47.8, "unit": "%"},
      {"measurement": "inhibition at 30 mg/kg", "setting": "[1]; [6]", "result": 84.2, "unit": "%"},
      {"measurement": "inhibition at 100 mg/kg", "setting": "[1]; Mus musculus, NCI-H358, 4 h, H358 xenograft, 100 mg/kg single dose, 4 hr post dose", "result": 83.5, "unit": "%"},
      {"measurement": "inhibition at 10 mg/kg", "setting": "[1]; [7]", "result": 69.2, "unit": "%"},
      {"measurement": "inhibition at 30 mg/kg", "setting": "[1]; [7]", "result": 86.5, "unit": "%"},
      {"measurement": "inhibition at 10 mg/kg", "setting": "[1]; [8]", "result": 83, "unit": "%"},
      {"measurement": "inhibition at 30 mg/kg", "setting": "[1]; [8]", "result": 77.4, "unit": "%"},
      {"measurement": "inhibition at 10 mg/kg", "setting": "[1]; [9]", "result": 45, "unit": "%"},
      {"measurement": "inhibition at 30 mg/kg", "setting": "[1]; [9]", "result": 63.4, "unit": "%"},
      {"measurement": "inhibition at 10 mg/kg", "setting": "[1]; Mus musculus, NCI-H358, H358 xenograft, from 2-12 hr, read-out: pERK inhibition", "result": "61 to 83", "unit": "%"},
      {"measurement": "inhibition at 30 mg/kg", "setting": "[1]; Mus musculus, NCI-H358, H358 xenograft, from 2-24 hr, read-out: pERK inhibition", "result": "63 to 87", "unit": "%"},
      {"measurement": "EC50", "setting": "[1]; Mus musculus, NCI-H358, H358 xenograft, plasma exposure by mass spectrum, read-out: plasma concentration to achieve 50% target inhibition (TEC50), pERK", "result": 474, "unit": "nM"},
      {"measurement": "IC50", "setting": "H1975; [2]", "result": 18.7, "unit": "µM"},
      {"measurement": "IC50", "setting": "H1975; [3]", "result": 6.2, "unit": "µM"},
      {"measurement": "IC50", "setting": "UM-UC-3; [2]", "result": 0.124, "unit": "µM"},
      {"measurement": "IC50", "setting": "UM-UC-3; [3]", "result": 0.075, "unit": "µM"},
      {"measurement": "IC50", "setting": "SW1463", "result": 0.013, "unit": "µM"},
      {"measurement": "IC50", "setting": "A549; [2]", "result": 17.7, "unit": "µM"},
      {"measurement": "IC50", "setting": "A549; [3]", "result": 5.94, "unit": "µM"},
      {"measurement": "IC50 (μM) in 2 D cell proliferation", "setting": "A549", "result": "little activity"},
      {"measurement": "IC50 (μM) in 3 D spheroid cell proliferation", "setting": "A549", "result": "little activity"},
      {"measurement": "IC50", "setting": "Kyse-410; [2]", "result": 2.94, "unit": "µM"},
      {"measurement": "IC50", "setting": "Kyse-410; [3]", "result": 0.471, "unit": "µM"}
    ]}
  ]
}
